Measured values as given in US7208517B1, “Endothelin antagonists” (Abbott Labortories, priority 1994, dated 2007).

Target: T1, ETA Receptor (Rattus norvegicus, UniProt P26684)
T1 construct: endogenous in cells; host or cells: MMQ rat pituitary cells (membranes)
T1 sequence (P26684 21-426): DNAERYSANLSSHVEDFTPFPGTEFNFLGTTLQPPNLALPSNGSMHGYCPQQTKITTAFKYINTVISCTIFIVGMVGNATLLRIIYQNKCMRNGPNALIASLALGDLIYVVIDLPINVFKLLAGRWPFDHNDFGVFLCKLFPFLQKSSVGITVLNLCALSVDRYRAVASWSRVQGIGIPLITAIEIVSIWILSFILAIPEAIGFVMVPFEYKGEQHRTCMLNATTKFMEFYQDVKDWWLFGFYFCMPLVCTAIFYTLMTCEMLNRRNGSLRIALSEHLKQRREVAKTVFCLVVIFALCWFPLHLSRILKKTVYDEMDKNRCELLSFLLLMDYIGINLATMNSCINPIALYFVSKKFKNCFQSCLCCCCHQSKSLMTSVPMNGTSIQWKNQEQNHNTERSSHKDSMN
Assay: [125I]ET-1 binding to membranes from MMQ cells (ETA receptor binding assay, Table 4)
Conditions: test compound at 1 μM; 0.1 nM [125I]ET-1, MMQ cell membranes, 4 hours at 25° C.
Experimental: Preparation of Membranes from MMQ Cells:
MMQ [MacLeod/MacQueen/Login cell line (prolactin secreting rat pituitary cells)] cells from 150 mL culture flasks were collected by centrifugation (1000×g for 10 min) and then homogenized in 25 mL of 10 mM Hepes (pH 7.4) containing 0.25 M sucrose and protease inhibitors [3 mM EDTA, 0.1 mM PMSF, and 5 μg/mL Pepstatin A] by a micro ultrasonic cell disrupter (Kontes). The mixture was centrifuged at 1000×g for 10 min. The supernatant was collected and centrifuged at 60,000×g for 60 min. The precipitate was resuspended in 20 mM Tris, pH 7.4 containing the above protease inhibitors and centrifuged again. The final pellet was resuspended in 20 mM Tris, pH 7.4 containing protease inhibitors and stored at −80° C. until used. Protein content was determined by the Bio-Rad dye-binding protein assay.
Binding assays were performed in 96-well microtiter plates pretreated with 0.1% BSA. […] After incubation, unbound ligands were separated from bound ligands by a vacuum filtration method using glass-fiber filter strips in PHD cell harvesters (Cambridge Technology, Inc., MA), followed by washing the filter strips with saline (1 mL) for three times. Nonspecific binding was determined in the presence of 1 μM ET-1.

Row | Structure (SMILES) | % Inhibition of ETA at 1 μM [%]
1 | CCCCN(CCCC)C(=O)CN1CC(c2ccc3c(c2)OCO3)C(C(=O)O)C1C(C)C (stereo not drawn) [Example 157, trans,trans-1-(N,N-Di(n-butyl)aminocarbonylmethyl)-2-(isopropyl)-4-(1,3-benzodioxol-5-yl)pyrrolidine-3-carboxylic acid] | 83.8
2 | COc1ccc(C2C(C(=O)O)C(c3ccc4c(c3)OCO4)CN2CCN(C)C(=O)C(C)C)cc1 (stereo not drawn) [Example 61C, trans,trans-2-(4-Methoxyphenyl)-4-(1,3-benzodioxol-5-yl)-1-(2-(N-methyl-N-isobutyrylamino)ethyl)-pyrrolidine-3-carboxylic acid] | 90.6
3 | COc1ccc(C2C(C(=O)O)C(c3ccc4c(c3)OCO4)CN2CC(=O)N(CCC(C)C)CCC(C)C)cc1 (stereo not drawn) [Example 34, trans,trans-2-(4-Methoxyphenyl)-4-(1,3-benzodioxol-5-yl)-1-(N,N-diisoamylaminocarbonylmethyl)-pyrrolidine-3carboxylic acid] | 95.5
4 | CCCCOCCN1CC(c2ccc3c(c2)OCO3)C(C(=O)O)C1c1ccc(OC)cc1 (stereo not drawn) [Example 23, trans,trans-2-(4-Methoxyphenyl)-4-(1,3-benzodioxol-5-yl)-1-(2-butoxyethyl)-pyrrolidine-3-carboxylic acid] | 85.9
5 | CCCN(CCN1CC(c2ccc3c(c2)OCO3)C(C(=O)O)C1c1ccc(OC)cc1)S(=O)(=O)CCOCC (stereo not drawn) [Example 126, trans,trans-1-(2-(N-Propyl-N-(2-ethoxyethylsulfonyl)amino)ethyl)-2-(4-methoxyphenyl)-4-(1,3-benzodioxol-5-yl)pyrrolidine-3-carboxylic acid] | 91.7
6 | CC(C)OCCOc1ccc(C2C(C(=O)O)C(c3ccc4c(c3)OCO4)CN2CC(=O)NN(c2ccccc2)C(C)(C)C)cc1 (stereo not drawn) [Example 560, trans,trans-2-(4-(2-(2-Propoxy)ethoxy)phenyl)-4-(1,3-benzodioxol-5-yl)-1-N-phenyl-N-t-butylhydrazino carbonylmethyl)-pyrrolidine-3-carboxylic acid] | 0
7 | CCCCN(CCCC)C(=O)CN1CC(c2cccc(F)c2)C(C(=O)O)C1c1ccc(OC)cc1 (stereo not drawn) [Example 164, trans,trans-1-(N,N-Di(n-butyl)aminocarbonylmethyl)-2-(4-methoxyphenyl)-4-(3-fluorophenyl)pyrrolidine-3-carboxylic acid] | 98.6
8 | CCCCN(CCCC)C(=O)CN1CC(c2cccc3occc23)C(C(=O)O)C1c1ccc(OC)cc1 (stereo not drawn) [Example 138, trans,trans-1-(N,N-Di(n-butyl)aminocarbonylmethyl)-2-(4-methoxyphenyl)-4-(4-benzofuranyl)pyrrolidine-3-carboxylic acid] | 83.0
9 | COc1ccc(C2C(C(=O)O)C(c3ccc4c(c3)OCO4)CN2CC(=O)N(C2CCCCC2)C2CCCCC2)cc1 (stereo not drawn) [Example 311, trans—trans-2-(4-Methoxyphenyl)-4-(1,3-benzodioxol-5-yl)-1-[N,N-dicyclohexylaminocarbonylmethyl]-pyrrolidine-3-carboxylic acid] | 92.3
10 | CCCN(CCN1CC(c2ccc3c(c2)OCO3)C(C(=O)O)C1c1ccc(OC)cc1)C(=O)OC(C)(C)C (stereo not drawn) [Example 312, trans—trans-2-(4-Methoxyphenyl)-4-(1,3-benzodioxol-5-yl)-1-[2-(N-propyl-N-tert-butoxycarbonylamino)ethyl]-pyrrolidine-3-carboxylic acid] | 88.2
11 | CCCN(C)C(=O)CN1CC(c2ccc(OC)cc2OC)C(C(=O)O)C1c1ccc(OC)cc1 (stereo not drawn) [Example 147, trans,trans-1-(N-Methyl-N-propylaminocarbonylmethyl)-2-(4-methoxyphenyl)-4-(2,4-dimethoxyphenyl)pyrrolidine-3-carboxylic acid] | 73.0
12 | CCCN(C)C(=O)CN1CC(c2ccc3ccoc3c2)C(C(=O)O)C1c1ccc(OC)cc1 (stereo not drawn) [Example 136, trans,trans-1-(N-Methyl-N-propylaminocarbonylmethyl)-2-(4-methoxyphenyl)-4-(6-benzofuranyl)pyrrolidine-3-carboxylic acid] | 79.4
13 | CCCN(C)C(=O)CN1CC(c2ccc3c(c2)OCCO3)C(C(=O)O)C1c1ccc(OC)cc1 (stereo not drawn) [Example 29, trans,trans-2-(4-Methoxyphenyl)-4-(1,4-benzodioxan-6-yl)-1-(N-methyl-N-propylaminocarbonylmethyl)-pyrrolidine-3-carboxylic acid] | 85.3
14 | COc1ccc(NC(=O)N2CC(c3ccc4c(c3)OCO4)C(C(=O)O)C2c2ccc(OC)cc2)cc1 (stereo not drawn) [Example 10, trans,trans-2-(4-Methoxyphenyl)-4-(1,3-benzodioxol-5-yl)-1-(4-methoxyphenylaminocarbonyl)-3-pyrrolidine-3-carboxylic acid] | 66.1
15 | CCCN(CCN1CC(c2ccc3c(c2)OCO3)C(C(=O)O)C1c1ccc(OC)cc1)S(=O)(=O)c1cccc2c(N(C)C)cccc12 (stereo not drawn) [Example 127, trans,trans-1-(2-(N-Propyl-N-(5-dimethylamino-1-naphthylsulfonyl)amino)ethyl)-2-(4-methoxyphenyl)-4-(1,3-benzodioxol-5-yl)pyrrolidine-3-carboxylic acid] | 91.4
16 | CCCN(C)C(=O)CN1CC(c2ccc(F)c(F)c2)C(C(=O)O)C1c1ccc(OC)cc1 (stereo not drawn) [Example 144, trans,trans-1-(N-Methyl-N-propylaminocarbonylmethyl)-2-(4-methoxyphenyl)-4-(3,4-difluorophenyl)pyrrolidine-3-carboxylic acid] | 78.2
17 | CCCN(C)C(=O)CN1CC(c2cccc(OC)c2)C(C(=O)O)C1c1ccc(OC)cc1 (stereo not drawn) [Example 55, trans,trans-2-(4-Methoxyphenyl)-4-(3-methoxyphenyl)-1-(N-methyl-N-propyl)aminocarbonylmethyl)-pyrrolidine-3-carboxylic acid] | 50.5
18 | CCCCN(CCCC)C(=O)CN1CC(c2ccc3c(c2)OCC3)C(C(=O)O)C1c1ccc(OC)cc1 (stereo not drawn) [Example 141, trans,trans-1-(N,N-Di(n-butyl)aminocarbonylmethyl)-2-(4-methoxyphenyl)-4-(6-benzo-2,3-dihydrofuranyl)pyrrolidine-3-carboxylic acid] | 92.8
19 | CCCN(CCN1CC(c2ccc3c(c2)OCO3)C(C(=O)O)C1c1ccc(OC)cc1)S(=O)(=O)c1ccc(F)cc1 (stereo not drawn) [Example 134, trans,trans-1-(2-(N-Propyl-N-(4-fluorobenzenesulfonyl)amino)ethyl)-2-(4-methoxyphenyl)-4-(1,3-benzodioxol-5-yl)pyrrolidine-3-carboxylic acid] | 92.2
20 | CCCN(CCN1CC(c2ccc3c(c2)OCO3)C(C(=O)O)C1c1ccc(OC)cc1)S(=O)(=O)c1ccc(C)cc1C (stereo not drawn) [Example 123, trans,trans-1-(2-(N-Propyl-N-(2,4-dimethylbenzenesulfonyl)amino)ethyl)-2-(4-methoxyphenyl)-4-(1,3-benzodioxol-5-yl)pyrrolidine-3-carboxylic acid] | 89.7
21 | COc1ccc(C2C(C(=O)O)C(c3ccc4c(c3)OCO4)CN2CC(=O)N(C)Cc2ccc(OC)c(OC)c2)cc1 (stereo not drawn) [Example 73C, trans,trans-2-(4-Methoxyphenyl)-4-(1,3-benzodioxol-5-yl)-1-(N-(3,4-dimethoxybenzyl)-N-methylaminocarbonylmethyl)pyrrolidine-3-carboxylic acid] | 96.3
22 | COCCOCCN1CC(c2ccc(OC)cc2)C(C(=O)O)C1c1ccc2c(c1)OCO2 (stereo not drawn) [Example 26, trans,trans-2-(1,3-Benzodioxol-5-yl)-4-(4-methoxyphenyl)-1-[2-(2-methoxyethoxy)ethyl)]-pyrrolidine-3-carboxylic acid] | 83.0
23 | CCCN(CCN1CC(c2ccc3c(c2)OCO3)C(C(=O)O)C1c1ccc(OC)cc1)S(=O)(=O)c1ccc(Cl)cc1 (stereo not drawn) [Example 132, trans,trans-1-(2-(N-Propyl-N-(4-chlorobenzenesulfonyl)amino)ethyl)-2-(4-methoxyphenyl)-4-(1,3-benzodioxol-5-yl)pyrrolidine-3-carboxylic acid] | 90.0
24 | CCCCN(CCCC)C(=O)CN1CC(c2ccc3c(c2)CCO3)C(C(=O)O)C1c1ccccc1 (stereo not drawn) [Example 153, trans,trans-1-(N,N-Di(n-butyl)aminocarbonylmethyl)-2-phenyl-4-(5-benzo-2,3-dihydrofuranyl)pyrrolidine-3-carboxylic acid] | 97.1
